Experiment [1] addresses Platelet-derived growth factor receptor alpha (Homo sapiens, UniProt P16234).
Experiment [2] addresses T1, Calcium/calmodulin-dependent protein kinase type IV (Homo sapiens, UniProt Q16566).
T1 sequence (Q16566 whole entry): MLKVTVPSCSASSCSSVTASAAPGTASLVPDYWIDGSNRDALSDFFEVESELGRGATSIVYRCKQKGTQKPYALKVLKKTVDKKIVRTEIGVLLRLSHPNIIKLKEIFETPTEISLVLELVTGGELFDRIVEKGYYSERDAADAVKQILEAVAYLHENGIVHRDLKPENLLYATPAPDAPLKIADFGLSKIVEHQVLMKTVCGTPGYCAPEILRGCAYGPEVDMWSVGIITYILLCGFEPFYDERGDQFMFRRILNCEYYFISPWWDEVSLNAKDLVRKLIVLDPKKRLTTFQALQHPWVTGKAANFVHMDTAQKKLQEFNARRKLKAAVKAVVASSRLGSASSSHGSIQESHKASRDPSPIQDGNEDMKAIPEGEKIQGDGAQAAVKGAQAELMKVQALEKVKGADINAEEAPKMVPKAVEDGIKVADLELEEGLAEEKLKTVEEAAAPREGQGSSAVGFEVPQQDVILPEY

Another experiment has as its target T2, Activin receptor type-1B (Homo sapiens, UniProt P36896).
T2 sequence (P36896 whole entry): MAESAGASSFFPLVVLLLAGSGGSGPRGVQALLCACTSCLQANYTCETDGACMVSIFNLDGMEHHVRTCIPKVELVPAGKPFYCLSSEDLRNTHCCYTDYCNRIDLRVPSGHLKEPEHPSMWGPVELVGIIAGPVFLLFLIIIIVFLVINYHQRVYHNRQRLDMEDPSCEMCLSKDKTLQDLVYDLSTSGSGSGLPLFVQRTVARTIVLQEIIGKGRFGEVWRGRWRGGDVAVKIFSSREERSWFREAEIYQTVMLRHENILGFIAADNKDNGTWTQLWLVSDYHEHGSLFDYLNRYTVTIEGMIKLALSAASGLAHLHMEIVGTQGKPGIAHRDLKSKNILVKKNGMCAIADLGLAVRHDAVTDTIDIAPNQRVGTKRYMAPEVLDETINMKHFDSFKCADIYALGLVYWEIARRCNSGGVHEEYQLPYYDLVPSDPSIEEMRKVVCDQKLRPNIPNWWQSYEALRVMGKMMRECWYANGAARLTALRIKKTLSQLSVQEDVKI

The target in experiment [3] is T3, Dual specificity mitogen-activated protein kinase kinase 6 (Homo sapiens, UniProt P52564).
T3 sequence (P52564 whole entry): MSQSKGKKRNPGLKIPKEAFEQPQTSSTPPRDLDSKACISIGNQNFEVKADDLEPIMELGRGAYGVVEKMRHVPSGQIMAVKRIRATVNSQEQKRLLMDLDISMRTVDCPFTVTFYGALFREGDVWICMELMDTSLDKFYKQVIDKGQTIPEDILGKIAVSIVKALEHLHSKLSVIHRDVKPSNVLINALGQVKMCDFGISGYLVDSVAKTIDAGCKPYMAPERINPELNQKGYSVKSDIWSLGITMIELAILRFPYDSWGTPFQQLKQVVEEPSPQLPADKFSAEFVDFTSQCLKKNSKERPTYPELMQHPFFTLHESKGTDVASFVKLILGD

For experiment [4], the target named is Tyrosine-protein kinase JAK1 (Homo sapiens, UniProt P23458).
The target of experiment [5] is Glycogen synthase kinase-3 beta (Homo sapiens, UniProt P49841).
For experiment [6], the target named is T4, Serine/threonine-protein kinase Nek2 (Homo sapiens, UniProt P51955).
T4 sequence (P51955 whole entry): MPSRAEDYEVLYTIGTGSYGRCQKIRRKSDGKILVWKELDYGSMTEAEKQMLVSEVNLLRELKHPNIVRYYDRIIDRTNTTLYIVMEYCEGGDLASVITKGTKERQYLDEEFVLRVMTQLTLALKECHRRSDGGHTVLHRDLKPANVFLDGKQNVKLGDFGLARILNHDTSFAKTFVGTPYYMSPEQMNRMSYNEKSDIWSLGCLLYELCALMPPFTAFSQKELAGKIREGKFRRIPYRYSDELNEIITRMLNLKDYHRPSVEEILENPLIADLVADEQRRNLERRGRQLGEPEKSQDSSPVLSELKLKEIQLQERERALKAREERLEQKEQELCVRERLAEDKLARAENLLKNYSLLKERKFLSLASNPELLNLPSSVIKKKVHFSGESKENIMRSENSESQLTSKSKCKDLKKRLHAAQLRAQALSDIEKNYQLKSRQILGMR

For experiment [7], the target named is Vascular endothelial growth factor receptor 2 (Homo sapiens, UniProt P35968).
Experiment [8] has as its target Mast/stem cell growth factor receptor Kit (Homo sapiens, UniProt P10721, V559D).
Experiment [9] addresses Cyclin-dependent kinase 18 (Homo sapiens, UniProt Q07002).

Chain of Tyrosine-protein kinase JAK1 (P23458 whole entry): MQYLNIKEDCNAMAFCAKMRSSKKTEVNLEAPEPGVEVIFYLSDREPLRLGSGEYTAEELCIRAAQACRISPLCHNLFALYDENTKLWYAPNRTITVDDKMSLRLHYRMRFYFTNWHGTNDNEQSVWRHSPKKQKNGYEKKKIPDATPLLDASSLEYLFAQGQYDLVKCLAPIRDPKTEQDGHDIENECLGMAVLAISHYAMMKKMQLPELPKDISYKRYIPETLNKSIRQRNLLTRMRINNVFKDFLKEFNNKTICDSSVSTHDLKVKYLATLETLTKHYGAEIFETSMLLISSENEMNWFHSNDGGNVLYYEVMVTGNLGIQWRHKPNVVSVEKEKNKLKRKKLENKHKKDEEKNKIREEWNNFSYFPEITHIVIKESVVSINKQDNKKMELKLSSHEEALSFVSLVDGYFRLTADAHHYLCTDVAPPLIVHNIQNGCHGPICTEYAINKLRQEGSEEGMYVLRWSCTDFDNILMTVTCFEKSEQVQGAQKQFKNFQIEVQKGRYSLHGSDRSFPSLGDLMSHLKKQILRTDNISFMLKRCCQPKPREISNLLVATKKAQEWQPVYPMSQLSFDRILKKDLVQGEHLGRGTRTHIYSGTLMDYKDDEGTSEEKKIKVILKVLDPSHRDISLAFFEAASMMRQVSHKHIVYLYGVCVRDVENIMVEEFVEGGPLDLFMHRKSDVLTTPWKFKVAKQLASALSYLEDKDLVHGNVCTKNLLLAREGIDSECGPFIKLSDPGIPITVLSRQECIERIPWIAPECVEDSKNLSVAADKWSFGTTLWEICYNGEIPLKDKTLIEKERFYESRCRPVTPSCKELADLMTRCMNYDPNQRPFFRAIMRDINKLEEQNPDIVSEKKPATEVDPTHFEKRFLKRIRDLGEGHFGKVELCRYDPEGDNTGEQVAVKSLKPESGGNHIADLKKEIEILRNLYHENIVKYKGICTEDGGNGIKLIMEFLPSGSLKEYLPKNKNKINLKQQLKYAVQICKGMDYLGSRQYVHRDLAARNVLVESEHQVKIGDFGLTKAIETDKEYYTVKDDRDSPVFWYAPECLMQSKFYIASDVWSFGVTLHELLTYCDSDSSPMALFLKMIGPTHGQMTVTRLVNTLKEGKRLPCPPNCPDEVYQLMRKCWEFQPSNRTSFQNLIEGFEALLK
Chain of Glycogen synthase kinase-3 beta (P49841 whole entry): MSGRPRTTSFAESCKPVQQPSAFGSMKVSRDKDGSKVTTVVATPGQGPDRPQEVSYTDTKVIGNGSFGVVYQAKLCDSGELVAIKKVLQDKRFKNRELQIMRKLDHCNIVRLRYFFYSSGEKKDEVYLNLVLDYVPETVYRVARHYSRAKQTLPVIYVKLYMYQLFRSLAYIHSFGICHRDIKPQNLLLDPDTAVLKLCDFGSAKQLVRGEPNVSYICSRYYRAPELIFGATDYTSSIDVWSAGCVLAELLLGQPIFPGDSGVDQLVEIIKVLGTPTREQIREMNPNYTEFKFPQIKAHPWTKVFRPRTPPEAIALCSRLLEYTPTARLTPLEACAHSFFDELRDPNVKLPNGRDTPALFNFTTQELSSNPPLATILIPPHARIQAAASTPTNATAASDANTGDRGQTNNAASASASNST
Chain of Cyclin-dependent kinase 18 (Q07002 whole entry): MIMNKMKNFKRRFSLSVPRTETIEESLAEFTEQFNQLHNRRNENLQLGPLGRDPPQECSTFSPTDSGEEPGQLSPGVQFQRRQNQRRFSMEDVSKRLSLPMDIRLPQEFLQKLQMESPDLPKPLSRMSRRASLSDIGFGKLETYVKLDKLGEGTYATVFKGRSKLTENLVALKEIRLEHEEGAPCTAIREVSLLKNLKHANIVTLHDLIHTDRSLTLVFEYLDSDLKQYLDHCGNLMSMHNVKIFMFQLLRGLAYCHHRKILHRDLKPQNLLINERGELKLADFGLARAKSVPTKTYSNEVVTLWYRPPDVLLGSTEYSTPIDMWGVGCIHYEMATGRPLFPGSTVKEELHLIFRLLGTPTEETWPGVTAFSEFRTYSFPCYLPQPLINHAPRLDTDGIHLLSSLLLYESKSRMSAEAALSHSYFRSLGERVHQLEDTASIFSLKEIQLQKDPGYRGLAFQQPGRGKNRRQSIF
Chain of Vascular endothelial growth factor receptor 2 (P35968 whole entry): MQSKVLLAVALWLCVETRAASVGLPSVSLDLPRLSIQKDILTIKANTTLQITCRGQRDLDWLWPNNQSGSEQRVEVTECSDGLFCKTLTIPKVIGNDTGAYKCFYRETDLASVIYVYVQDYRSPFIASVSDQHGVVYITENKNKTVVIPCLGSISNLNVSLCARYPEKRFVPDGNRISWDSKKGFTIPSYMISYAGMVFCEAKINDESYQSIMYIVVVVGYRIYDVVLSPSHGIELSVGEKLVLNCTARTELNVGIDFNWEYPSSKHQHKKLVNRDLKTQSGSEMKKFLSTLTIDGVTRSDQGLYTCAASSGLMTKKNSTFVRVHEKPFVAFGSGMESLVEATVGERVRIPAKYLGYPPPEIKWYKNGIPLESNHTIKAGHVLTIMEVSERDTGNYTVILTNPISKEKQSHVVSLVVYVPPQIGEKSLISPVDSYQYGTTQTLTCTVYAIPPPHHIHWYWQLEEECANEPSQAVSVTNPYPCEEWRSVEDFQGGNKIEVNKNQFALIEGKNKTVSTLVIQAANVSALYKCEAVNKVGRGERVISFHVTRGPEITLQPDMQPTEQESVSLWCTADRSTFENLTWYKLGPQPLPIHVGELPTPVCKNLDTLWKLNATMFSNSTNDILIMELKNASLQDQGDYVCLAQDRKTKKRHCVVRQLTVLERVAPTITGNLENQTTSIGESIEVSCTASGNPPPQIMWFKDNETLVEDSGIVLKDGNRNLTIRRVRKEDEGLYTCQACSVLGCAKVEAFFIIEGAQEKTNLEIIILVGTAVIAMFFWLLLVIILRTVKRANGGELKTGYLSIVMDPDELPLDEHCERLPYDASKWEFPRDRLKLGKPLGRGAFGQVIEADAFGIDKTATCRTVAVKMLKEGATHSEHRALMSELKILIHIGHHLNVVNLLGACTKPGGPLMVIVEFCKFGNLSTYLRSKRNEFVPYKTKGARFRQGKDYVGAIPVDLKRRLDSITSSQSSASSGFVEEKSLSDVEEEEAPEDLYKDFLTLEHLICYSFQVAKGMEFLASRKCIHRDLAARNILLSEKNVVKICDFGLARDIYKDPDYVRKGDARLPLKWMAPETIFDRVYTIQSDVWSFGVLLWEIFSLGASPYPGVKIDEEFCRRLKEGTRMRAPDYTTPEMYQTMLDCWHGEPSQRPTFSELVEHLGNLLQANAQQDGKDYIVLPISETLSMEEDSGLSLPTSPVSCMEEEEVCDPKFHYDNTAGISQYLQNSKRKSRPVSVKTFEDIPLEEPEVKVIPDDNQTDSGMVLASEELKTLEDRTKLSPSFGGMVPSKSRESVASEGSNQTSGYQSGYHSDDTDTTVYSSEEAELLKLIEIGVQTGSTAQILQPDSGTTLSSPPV
Chain of Platelet-derived growth factor receptor alpha (P16234 whole entry): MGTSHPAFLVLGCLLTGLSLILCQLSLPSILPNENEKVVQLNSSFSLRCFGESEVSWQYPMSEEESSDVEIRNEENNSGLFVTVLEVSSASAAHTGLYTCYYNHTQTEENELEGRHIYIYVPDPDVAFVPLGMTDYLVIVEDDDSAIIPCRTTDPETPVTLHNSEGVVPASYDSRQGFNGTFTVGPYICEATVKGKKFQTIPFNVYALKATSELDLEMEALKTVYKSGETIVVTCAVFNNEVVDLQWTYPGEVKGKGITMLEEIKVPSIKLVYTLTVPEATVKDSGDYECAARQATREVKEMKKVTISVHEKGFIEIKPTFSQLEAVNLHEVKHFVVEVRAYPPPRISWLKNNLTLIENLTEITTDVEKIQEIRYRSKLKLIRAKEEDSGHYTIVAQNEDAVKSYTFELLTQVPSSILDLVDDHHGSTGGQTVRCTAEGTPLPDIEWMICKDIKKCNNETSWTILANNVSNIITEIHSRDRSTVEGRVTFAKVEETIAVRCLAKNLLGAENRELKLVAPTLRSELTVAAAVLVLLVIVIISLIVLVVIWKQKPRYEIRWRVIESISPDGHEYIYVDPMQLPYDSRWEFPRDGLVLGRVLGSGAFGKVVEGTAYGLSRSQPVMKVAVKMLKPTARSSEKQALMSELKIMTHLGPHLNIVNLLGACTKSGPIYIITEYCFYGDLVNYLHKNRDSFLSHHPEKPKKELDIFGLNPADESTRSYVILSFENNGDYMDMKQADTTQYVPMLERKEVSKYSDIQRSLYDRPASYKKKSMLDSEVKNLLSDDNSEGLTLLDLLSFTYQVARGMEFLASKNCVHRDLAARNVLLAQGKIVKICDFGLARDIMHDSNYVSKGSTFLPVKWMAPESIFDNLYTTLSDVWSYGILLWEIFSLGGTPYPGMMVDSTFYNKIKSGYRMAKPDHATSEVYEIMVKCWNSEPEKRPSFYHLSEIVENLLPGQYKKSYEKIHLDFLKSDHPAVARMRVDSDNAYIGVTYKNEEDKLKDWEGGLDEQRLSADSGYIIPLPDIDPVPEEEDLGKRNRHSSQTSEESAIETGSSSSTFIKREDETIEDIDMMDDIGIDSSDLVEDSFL

`Oc1ccc(-c2nc(-c3ccncc3)c(-c3ccc(F)cc3)[nH]2)cc1` [SB-202190]: the Kd in [1] was over 10 µM; in experiment [2], over 10 µM; on Activin receptor type-1B, 0.95 µM; in experiment [3] it was over 10 µM; in experiment [4] it was over 10 µM; in [5], 2.7 µM. Besides, the dissociation constant Kd in experiment [6], in experiment [7], in experiment [8] and in experiment [9] was over 10 µM in each case.

With `COCC(=O)NC/C=C/c1ccc2ncnc(Nc3ccc(Oc4ccc(C)nc4)c(C)c3)c2c1` [CP-724714], the Kd (in experiment [1]; in experiment [2]; at Activin receptor type-1B; in [3]; in experiment [4]; in experiment [5]) was over 10 µM in each case. In addition, the Kd in [6], in [7], in [8] and in [9] was over 10 µM each time.

Consider `Nc1nc(Nc2ccc(S(N)(=O)=O)cc2)nn1C(=O)c1c(F)cccc1F` [JNJ-7706621], for which the dissociation constant (Kd) (in [2]; at Activin receptor type-1B) was over 10 µM each time.

For the compound `NC(=O)c1ccc(-c2nc(-c3ccc4c(c3)OCO4)c(-c3ccccn3)[nH]2)cc1` [SB-431542], the Kd in experiment [1], in experiment [2], in experiment [3], in experiment [4], in experiment [5] and in experiment [6] was over 10 µM in each case. The Kd in experiment [7], in experiment [8] and in experiment [9] was over 10 µM in each case.

Consider `CCOc1cc2ncc(C#N)c(Nc3ccc(F)c(Cl)c3)c2cc1NC(=O)/C=C/CN(C)C` [PELITINIB], for which the Kd (in experiment [1]; in experiment [2]; at Activin receptor type-1B; in experiment [3]; in experiment [4]; in [5]) was over 10 µM throughout. The Kd in [7], in experiment [8] and in experiment [9] was over 10 µM each time.

By Kd is commonly meant the free concentration of one partner at which half of the binding sites on the other are occupied at equilibrium, for simple one-to-one binding.

(Values after ChEMBL document CHEMBL1150977, “A quantitative analysis of kinase inhibitor selectivity” (Nat Biotechnol, 2008).)
